Experimental data reported in US20130197032A1, “[…] COMPOUNDS FOR THE TREATMENT OF NEUROLOGICAL AND […] DISORDERS” (A. CARLSSON RESEARCH AB, priority 2010, published 2013).
Like-named read-outs stand apart in the source and are kept apart here.

How the values were obtained:
[1] = molecular target: human norepinephrine transporter (NET) (Homo sapiens, UniProt P23975); assay: Equilibrium radioligand binding to NET; conditions: displacement of 3H-Imipramine
Procedure: Cells were not centrifuged following cell scraping, but were collected directly into the ice-cold nitrogen cavitation chamber.
Membranes were prepared as described above. […] Binding reactions were terminated by filtration through UniFilter-96GF/B filters (from Perkin-Elmer, presoaked with 0.1% polyethylenimine for 1 h) with a Brandel 96-well harvester. Filters were washed with ice-cold wash buffer (50 mM Tris, 120 mM NaCl, pH7.4; 500 ml/plate) and then allowed to air-dry for 30 min. 50 μl MacrosScint-20 scintillation cocktail was added to each well, the plates were sealed, and then counted on a Top-Count (Packard).

human 5-HT1D receptor = molecular target: T1, human 5-HT1D receptor (Homo sapiens, UniProt P28221); assay: R-SAT assay 5-HT1D; type: cell-based; conditions: Table 3, 5-HT1D; for Eff (%): percent response of reference 5-CT
T1 construct: expressed in transfected cells; host or cells: NIH/3T3
T1 sequence (P28221 whole entry): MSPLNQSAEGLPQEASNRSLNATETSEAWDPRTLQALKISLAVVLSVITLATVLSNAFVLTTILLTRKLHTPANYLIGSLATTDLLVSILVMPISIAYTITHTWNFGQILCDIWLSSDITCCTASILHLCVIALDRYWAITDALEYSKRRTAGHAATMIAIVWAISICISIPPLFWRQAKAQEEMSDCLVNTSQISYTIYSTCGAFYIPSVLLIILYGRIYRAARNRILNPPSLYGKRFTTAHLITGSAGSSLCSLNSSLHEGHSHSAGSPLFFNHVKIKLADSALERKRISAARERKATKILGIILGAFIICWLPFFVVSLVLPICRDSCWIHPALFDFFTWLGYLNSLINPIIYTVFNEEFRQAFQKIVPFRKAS

human 5-HT2A receptors = human 5-HT2A receptors (Homo sapiens, UniProt P28223); assay: R-SAT functional assay at 5-HT2A; type: cell-based; set-up: expressed in transfected cells; host or cells: NIH-3T3; conditions: for R-SAT Eff(%): percent response of reference ligand 5-CT; for Eff (%): percent response of reference 5-CT; for potency at 5-HT2A receptors compared with D2 receptors: comparison of Table 1 and Table 2
Chain of human 5-HT2A receptors (P28223 whole entry): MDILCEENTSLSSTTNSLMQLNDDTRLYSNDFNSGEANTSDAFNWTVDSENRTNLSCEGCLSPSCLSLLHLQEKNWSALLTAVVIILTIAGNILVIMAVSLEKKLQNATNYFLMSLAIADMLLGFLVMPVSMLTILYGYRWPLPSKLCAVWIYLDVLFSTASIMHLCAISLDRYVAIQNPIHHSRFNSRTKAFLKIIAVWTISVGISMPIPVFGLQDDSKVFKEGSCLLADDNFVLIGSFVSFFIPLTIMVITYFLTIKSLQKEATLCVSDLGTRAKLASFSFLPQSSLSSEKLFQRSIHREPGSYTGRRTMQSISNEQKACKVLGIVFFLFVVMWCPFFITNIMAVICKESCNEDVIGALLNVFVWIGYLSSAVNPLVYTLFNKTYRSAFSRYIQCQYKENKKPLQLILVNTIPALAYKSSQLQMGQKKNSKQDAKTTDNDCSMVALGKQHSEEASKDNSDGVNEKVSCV

human M2 receptor = molecular target: T2, human M2 receptor (Homo sapiens, UniProt P08172); assay: R-SAT assay M2; type: cell-based; conditions: Table 3, M2; percent response of reference Carbachol
T2 construct: expressed in transfected cells; host or cells: NIH/3T3
T2 sequence (P08172 1-466): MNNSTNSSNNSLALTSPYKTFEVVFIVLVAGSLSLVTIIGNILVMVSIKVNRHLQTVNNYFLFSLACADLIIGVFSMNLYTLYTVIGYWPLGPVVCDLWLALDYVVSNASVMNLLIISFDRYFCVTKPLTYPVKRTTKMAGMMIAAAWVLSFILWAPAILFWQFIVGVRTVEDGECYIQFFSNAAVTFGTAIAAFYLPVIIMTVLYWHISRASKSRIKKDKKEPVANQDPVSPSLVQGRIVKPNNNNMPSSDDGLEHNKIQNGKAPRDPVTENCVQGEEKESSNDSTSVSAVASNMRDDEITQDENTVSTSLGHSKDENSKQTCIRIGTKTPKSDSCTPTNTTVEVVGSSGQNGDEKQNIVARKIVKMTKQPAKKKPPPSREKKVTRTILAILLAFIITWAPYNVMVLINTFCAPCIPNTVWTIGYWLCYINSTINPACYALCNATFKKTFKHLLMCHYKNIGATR

human 5-HT1A receptor = molecular target: T3, human 5-HT1A receptor (Homo sapiens, UniProt P08908); assay: R-SAT assay 5-HT1A; type: cell-based; conditions: Table 3, 5-HT1A; percent response of reference 8-OH-DPAT
T3 construct: expressed in transfected cells; host or cells: NIH/3T3
T3 sequence (P08908 whole entry): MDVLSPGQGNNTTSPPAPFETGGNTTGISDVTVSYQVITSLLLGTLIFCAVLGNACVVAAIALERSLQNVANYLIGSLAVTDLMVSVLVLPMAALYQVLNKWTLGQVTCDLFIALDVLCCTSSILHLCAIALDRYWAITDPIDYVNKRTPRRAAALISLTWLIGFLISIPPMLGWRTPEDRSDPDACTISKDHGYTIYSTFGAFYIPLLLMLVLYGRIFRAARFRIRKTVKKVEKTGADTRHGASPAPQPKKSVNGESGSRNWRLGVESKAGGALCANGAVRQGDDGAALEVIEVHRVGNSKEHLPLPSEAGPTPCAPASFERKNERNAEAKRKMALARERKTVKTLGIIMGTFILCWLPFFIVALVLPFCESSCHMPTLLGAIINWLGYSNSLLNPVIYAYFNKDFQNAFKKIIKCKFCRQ

drug naive mice = assay: Head twitch induction in mice; type: in vivo; conditions: DOI 1 mg/kg ip, OSU6162 enantiomers 9.375-300 μmol/kg ip, 10 min before registration
Procedure: (§1) The animals used in the head twitch experiments were individually placed in Macrolon type II cages and allowed to habituate to these test cages during 30 minutes before the video registration of behavior began. […] The animals were videotaped for 10 minutes; the behavior was scored during the first 5 minutes. The number of head twitches was counted from the videotapes by a person blind to the treatment.
In FIG. 5, the number of head twitches produced during 5 minutes is shown. The mice were habituated to the test cages during 30 minutes before the video registration of behavior began. […] Shown are means and SEM, n=6-12.

habituated rats = assay: Locomotion in habituated rats, photocell activity boxes; conditions: 5-35 minutes after injection; for locomotion in habituated rats: 6.25, 12.5, 50, 100, 200 and 400 μmol/kg sc, vs Control; for locomotion, accumulated unrepeated beam breaks, means±SEM of pooled groups: habituated rats, 50 μmol/kg sc, 30 minutes period, controls 23±6
Procedure: Motor activity experiments in both active and habituated rats were performed on male Sprague-Dawley rats (Charles River, Germany) weighing 280-320 g. Prior to testing, rats were housed in groups of four or five in ventilated Macrolon type IV cages for approximately one week.
Rats were housed in a normal daylight cycle and the experiments were carried out during daytime. […] During the following 5 minutes test drugs were injected, after which the rats were returned to the boxes for another 60 minutes. Five by five rows of photocell beams at floor level allowed a computer based-system to register horizontal activity. Motor activity is presented as accumulated number of unrepeated beam breaks, i.e. several consecutive breakings of one beam is counted as one beam break. The software was set to register behavior from the rats' first introduction into the arena until it was finally removed from the box, i.e. for 110 or 130 minutes.
Locomotion was measured as accumulated unrepeated beam breaks. […] This was followed by 60 minutes of registration. Data are calculated from a 30 minutes period, 5-35 minutes after injection, and plotted as means and SEM. […] Data were calculated from a 30 minutes period, 5-35 minutes after injection.
The effect of haloperidol on the locomotor stimulation was also studied in habituated rats (see FIG. 10). Locomotion was measured as accumulated unrepeated beam breaks. Rats were given haloperidol (0.05, 0.2, 0.5 mg/kg, sc) and were then allowed to habituate for 65 minutes. […] Data are calculated from a 30 minutes period, taken 5-35 minutes after injection, and plotted as means and SEM. N=4-5.

[2] = tested on: DOI-induced head twitches in mice; assay: Antagonism of DOI-induced head twitch response in mice; type: in vivo; conditions: DOI 1 mg/kg ip, 75 or 150 μmol/kg ip
Procedure: as §1
The purpose of the second experiment was to investigate whether the OSU6162 enantiomers would be able to counteract DOI-induced head twitches. […] The mice were habituated to the test cages during 30 minutes before the video registration of behavior began. All compounds were administered 10 min before the registration of behavior started. DOI was given in dose of 1 mg/kg (ip) throughout. […] In b) the interaction between (+)-OSU6162 (75 or 150 μmol/kg ip) and DOI is shown. In c) the interaction between (−)- or (+)-OSU6162 (75 μmol/kg ip) and DOI is shown.

human M3 receptor = molecular target: T4, human M3 receptor (Homo sapiens, UniProt P20309); assay: R-SAT assay M3; type: cell-based; conditions: Table 3, M3; percent response of reference Carbachol
T4 construct: expressed in transfected cells; host or cells: NIH/3T3
T4 sequence (P20309 whole entry): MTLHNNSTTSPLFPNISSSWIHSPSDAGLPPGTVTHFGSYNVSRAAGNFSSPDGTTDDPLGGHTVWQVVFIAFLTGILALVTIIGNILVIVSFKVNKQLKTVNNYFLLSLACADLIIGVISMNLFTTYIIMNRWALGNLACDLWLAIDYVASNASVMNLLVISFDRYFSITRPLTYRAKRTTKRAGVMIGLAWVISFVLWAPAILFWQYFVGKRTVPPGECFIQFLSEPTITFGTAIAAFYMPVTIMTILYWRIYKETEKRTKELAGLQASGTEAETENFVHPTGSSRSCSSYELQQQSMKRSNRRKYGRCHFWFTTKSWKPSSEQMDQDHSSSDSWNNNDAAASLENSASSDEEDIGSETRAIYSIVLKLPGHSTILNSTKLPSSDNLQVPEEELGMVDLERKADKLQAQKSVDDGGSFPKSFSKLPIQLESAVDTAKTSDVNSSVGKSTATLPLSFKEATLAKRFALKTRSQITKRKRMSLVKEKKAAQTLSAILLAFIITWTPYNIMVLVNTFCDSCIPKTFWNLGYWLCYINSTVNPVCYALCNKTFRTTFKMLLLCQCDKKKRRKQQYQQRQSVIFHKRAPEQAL

human alpha2C receptor = molecular target: T5, human alpha2C receptor (Homo sapiens, UniProt P18825); assay: R-SAT assay α2C; type: cell-based; conditions: Table 3, α2C; percent response of reference UK 14,306
T5 construct: expressed in transfected cells; host or cells: NIH/3T3 cells, transient transfection, pSI vector
T5 sequence (P18825 1-462): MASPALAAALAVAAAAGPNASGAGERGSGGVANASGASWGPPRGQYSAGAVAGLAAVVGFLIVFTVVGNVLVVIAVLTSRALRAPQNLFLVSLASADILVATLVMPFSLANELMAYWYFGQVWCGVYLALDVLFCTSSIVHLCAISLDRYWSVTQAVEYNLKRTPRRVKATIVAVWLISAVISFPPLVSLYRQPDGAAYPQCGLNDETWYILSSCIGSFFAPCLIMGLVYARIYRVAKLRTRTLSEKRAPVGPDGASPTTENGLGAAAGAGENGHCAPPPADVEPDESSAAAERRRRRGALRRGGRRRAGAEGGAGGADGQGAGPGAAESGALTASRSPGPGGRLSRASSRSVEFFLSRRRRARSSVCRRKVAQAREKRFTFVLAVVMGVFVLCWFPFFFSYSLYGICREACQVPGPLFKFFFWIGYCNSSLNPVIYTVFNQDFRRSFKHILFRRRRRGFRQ

[3] = Table 1, negative logarithm of EC50 in molar (M), NIH3T3 cells, mean ± SEM, read-out: R-SAT pEC50 (converted)
[4] = Table 3, 5-HT2A, negative logarithm of EC50 in molar, read-out: pEC50 (converted)

Chain of human norepinephrine transporter (NET) (P23975 whole entry): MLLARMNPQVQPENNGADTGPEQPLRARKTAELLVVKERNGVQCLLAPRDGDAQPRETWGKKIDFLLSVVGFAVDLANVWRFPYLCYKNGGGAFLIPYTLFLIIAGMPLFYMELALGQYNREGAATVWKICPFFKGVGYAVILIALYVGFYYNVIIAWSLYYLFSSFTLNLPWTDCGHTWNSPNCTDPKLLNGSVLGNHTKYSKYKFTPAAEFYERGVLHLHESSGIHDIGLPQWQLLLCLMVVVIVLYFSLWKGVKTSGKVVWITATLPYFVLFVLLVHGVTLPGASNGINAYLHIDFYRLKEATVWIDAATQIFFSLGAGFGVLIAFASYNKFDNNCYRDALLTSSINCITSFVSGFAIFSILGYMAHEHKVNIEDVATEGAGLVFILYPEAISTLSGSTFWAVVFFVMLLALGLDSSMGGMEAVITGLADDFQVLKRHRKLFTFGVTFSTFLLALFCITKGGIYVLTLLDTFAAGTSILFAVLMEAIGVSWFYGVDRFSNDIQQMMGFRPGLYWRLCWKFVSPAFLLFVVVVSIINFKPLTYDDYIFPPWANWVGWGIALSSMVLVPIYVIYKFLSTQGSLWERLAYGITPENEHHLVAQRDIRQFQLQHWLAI

Row | Compound | Inh % [1] [%] | Eff (%) (human 5-HT1D receptor) | EC50 (human 5-HT2A receptors; [3]) [M] | R-SAT Eff(%) (human 5-HT2A receptors; Table 1, mean ± SEM) | EC50 (human 5-HT2A receptors; [4]) [M] | Eff (%) (human 5-HT2A receptors; Table 3, 5-HT2A) | potency at 5-HT2A receptors compared with D2 receptors (human 5-HT2A receptors) | Eff (%) (human M2 receptor) | Eff (%) (human 5-HT1A receptor) | head twitches produced during 5 minutes (drug naive mice) | locomotion in habituated rats (habituated rats) | locomotion, accumulated unrepeated beam breaks, means±SEM of pooled groups (habituated rats) [unrepeated beam breaks] | antagonism of DOI-induced head twitches [2] | Eff (%) (human M3 receptor) | Eff (%) (human alpha2C receptor) | EC50 (human 5-HT1D receptor; negative logarithm of EC50 in molar) [µM]
1 | CCCN1CCC[C@H](c2cccc(S(C)(=O)=O)c2)C1 [(+)-OSU6162, (3R)-3-[3-(methylsulfonyl)phenyl]-1-propylpiperidine] | 14 | 28 | 1.58e-06 | 139 ± 14 | 1.58e-06 | 139 | more potent at 5-HT2A than D2 receptors | 22 | 24 | produced head twitches but to a lesser degree than DOI | significant locomotor stimulation was observed for all doses but the two lowest | 95±12 | neither 75 nor 150 μmol/kg of (+)-OSU6162 significantly antagonized DOI-induced head twitches | 6 | 13 | –
2 | CCCN1CCC[C@@H](c2cccc(S(C)(=O)=O)c2)C1 [(−)-OSU6162, (3S)-3-[3-(methylsulfonyl)phenyl]-1-propylpiperidine] | 11 | 132 | 6.31e-07 | 113 ± 18 | 6.31e-07 | 113 | equipotent at D2 and 5-HT2A receptors | 9 | 14 | produced head twitches but to a lesser degree than DOI | significant locomotor stimulation was observed for all doses but the lowest | 129±11 | significantly antagonized DOI-induced head twitches | 0 | 6 | 5.01
